Test system: 966289-007-R4-J1-PDC complex spheroid viability
Test: Anticancer human tumor 966289-007-R4-J1-PDC patient-derived pancreatic adenocarcinoma cell line growth inhibition [RAS]
Details: for IC50: curve of first compound; for viability, T/C: stronger effect = lower value
In short: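 Agents were tested in combination matrices in half-log decrements from a top concentration at or near clinical Cmax (10 microM if undetermined). Targets were multi-cell spheroids of tumour lines plus HUVEC and MSC stromal cells.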

[1] = second compound 0.000949 µM, first compound 0.0316 µM
[2] = second compound 0.000949 µM, first compound 0.1 µM
[3] = second compound 0.000949 µM, first compound 0.316 µM
[4] = second compound 0.000949 µM, first compound 1 µM
[5] = second compound 0.003 µM, first compound 0.0316 µM
[6] = second compound 0.003 µM, first compound 0.1 µM
[7] = second compound 0.003 µM, first compound 0.316 µM
[8] = second compound 0.003 µM, first compound 1 µM
[9] = second compound 0.00949 µM, first compound 0.0316 µM
[10] = second compound 0.00949 µM, first compound 0.1 µM
[11] = second compound 0.00949 µM, first compound 0.316 µM
[12] = second compound 0.00949 µM, first compound 1 µM
[13] = second compound 0.03 µM, first compound 0.0316 µM
[14] = second compound 0.03 µM, first compound 0.1 µM
[15] = second compound 0.03 µM, first compound 0.316 µM
[16] = second compound 0.03 µM, first compound 1 µM
[17] = second compound 0.0949 µM, first compound 0.0316 µM
[18] = second compound 0.0949 µM, first compound 0.1 µM
[19] = second compound 0.0949 µM, first compound 0.316 µM
[20] = second compound 0.0949 µM, first compound 1 µM
[21] = second compound 0.3 µM, first compound 0.0316 µM
[22] = second compound 0.3 µM, first compound 0.1 µM
[23] = second compound 0.3 µM, first compound 0.316 µM
[24] = second compound 0.3 µM, first compound 1 µM
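Also: spheroids exposed to agents for one week before readout.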
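For viability, T/C in this document: percent viability relative to DMSO vehicle control wells as 100%.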

Work on `CCc1c2c(nc3ccc(O)cc13)-c1cc3c(c(=O)n1C2)COC(=O)[C@]3(O)CC` + CCn1c(-c2cc(N3CCN(C)CC3)cnc2C(C)OC)c2c3cc(ccc31)-c1csc(n1)CC(NC(=O)C1CC1C)C(=O)N1CCCC(N1)C(=O)OCC(C)(C)C2 yielded an IC50 (second compound 0.000949 µM) of 1.67 nM, an IC50 (second compound 0.003 µM) of 1.57 nM and an IC50 (second compound 0.00949 µM) of 1.39 nM. The IC50 (second compound 0.03 µM) was 1.14 nM, the IC50 (second compound 0.0949 µM) was 1.15 nM and the IC50 (second compound 0.3 µM) was 1.21 nM. The viability, T/C (second compound 0.000949 µM, first compound 0.000949 µM) was 95.5%, the viability, T/C (second compound 0.000949 µM, first compound 0.003 µM) was 2.7% and the viability, T/C (second compound 0.000949 µM, first compound 0.00949 µM) was 0.64%. For the same compound, the viability, T/C (second compound 0.000949 µM, first compound 0.03 µM) was 0.62%, the viability, T/C (second compound 0.000949 µM, first compound 0.0949 µM) was 0.49% and the viability, T/C (second compound 0.000949 µM, first compound 0.3 µM) was 0.57%. The viability, T/C (second compound 0.003 µM, first compound 0.000949 µM) was 86.2%, the viability, T/C (second compound 0.003 µM, first compound 0.003 µM) was 3.2% and the viability, T/C (second compound 0.003 µM, first compound 0.00949 µM) was 0.55%. The viability, T/C (second compound 0.003 µM, first compound 0.03 µM) was 0.6%, the viability, T/C (second compound 0.003 µM, first compound 0.0949 µM) was 1.32% and the viability, T/C (second compound 0.003 µM, first compound 0.3 µM) was 0.57%. It also gave a viability, T/C (second compound 0.00949 µM, first compound 0.000949 µM) of 71.3%, a viability, T/C (second compound 0.00949 µM, first compound 0.003 µM) of 6.94% and a viability, T/C (second compound 0.00949 µM, first compound 0.00949 µM) of 1.03%. For the same compound, the viability, T/C (second compound 0.00949 µM, first compound 0.03 µM) was 0.54%, the viability, T/C (second compound 0.00949 µM, first compound 0.0949 µM) was 0.73% and the viability, T/C (second compound 0.00949 µM, first compound 0.3 µM) was 0.75%. It also gave a viability, T/C (second compound 0.03 µM, first compound 0.000949 µM) of 58.1%, a viability, T/C (second compound 0.03 µM, first compound 0.003 µM) of 7.49% and a viability, T/C (second compound 0.03 µM, first compound 0.00949 µM) of 0.82%. It also gave a viability, T/C (second compound 0.03 µM, first compound 0.03 µM) of 1.66%, a viability, T/C (second compound 0.03 µM, first compound 0.0949 µM) of 0.53% and a viability, T/C (second compound 0.03 µM, first compound 0.3 µM) of 0.43%. The viability, T/C (second compound 0.0949 µM, first compound 0.000949 µM) was 58.9%, the viability, T/C (second compound 0.0949 µM, first compound 0.003 µM) was 4.98% and the viability, T/C (second compound 0.0949 µM, first compound 0.00949 µM) was 0.8%. It also gave a viability, T/C (second compound 0.0949 µM, first compound 0.03 µM) of 0.54%, a viability, T/C (second compound 0.0949 µM, first compound 0.0949 µM) of 0.7% and a viability, T/C (second compound 0.0949 µM, first compound 0.3 µM) of 0.4%. For the same compound, the viability, T/C (second compound 0.3 µM, first compound 0.000949 µM) was 62.1%, the viability, T/C (second compound 0.3 µM, first compound 0.003 µM) was 4.76% and the viability, T/C (second compound 0.3 µM, first compound 0.00949 µM) was 0.65%. For the same compound, the viability, T/C (second compound 0.3 µM, first compound 0.03 µM) was 0.58%, the viability, T/C (second compound 0.3 µM, first compound 0.0949 µM) was 0.62% and the viability, T/C (second compound 0.3 µM, first compound 0.3 µM) was 0.39%.
`CCC(CC)c1cc(NC2CCC(N)C2)n2nccc2n1` (stereo unspecified) + CCn1c(-c2cccnc2C(C)OC)c2c3cc(ccc31)N1CCOC(CC(NC(=O)C(C(C)C)N(C)C(=O)C3(F)CCN(C(=O)C#CC(C)(C)N(C)C)CC3)C(=O)N3CCCC(N3)C(=O)OCC(C)(C)C2)C1 was tested, and the IC50 (second compound 0.000949 µM) was 1500 nM, the IC50 (second compound 0.003 µM) was 1420 nM and the IC50 (second compound 0.00949 µM) was 1480 nM. It also gave an IC50 (second compound 0.03 µM) of 1070 nM, an IC50 (second compound 0.0949 µM) of 764 nM and an IC50 (second compound 0.3 µM) of 595 nM. For the same compound, the viability, T/C [1] was 113%, the viability, T/C [2] was 87% and the viability, T/C [3] was 115%. It also gave a viability, T/C [4] of 76.3%, a viability, T/C (second compound 0.000949 µM, first compound 3.16 µM) of 1.1% and a viability, T/C (second compound 0.000949 µM, first compound 10 µM) of 1.22%. It also gave a viability, T/C [5] of 99.7%, a viability, T/C [6] of 82.4% and a viability, T/C [7] of 66.7%. The viability, T/C [8] was 71.3%, the viability, T/C (second compound 0.003 µM, first compound 3.16 µM) was 1.2% and the viability, T/C (second compound 0.003 µM, first compound 10 µM) was 0.93%. It also gave a viability, T/C [9] of 82.1%, a viability, T/C [10] of 122% and a viability, T/C [11] of 96.5%. The viability, T/C [12] was 75.1%, the viability, T/C (second compound 0.00949 µM, first compound 3.16 µM) was 1.25% and the viability, T/C (second compound 0.00949 µM, first compound 10 µM) was 1.32%. It also gave a viability, T/C [13] of 66.9%, a viability, T/C [14] of 72.1% and a viability, T/C [15] of 123%. The viability, T/C [16] was 52.9%, the viability, T/C (second compound 0.03 µM, first compound 3.16 µM) was 1.48% and the viability, T/C (second compound 0.03 µM, first compound 10 µM) was 1.83%. It also gave a viability, T/C [17] of 64%, a viability, T/C [18] of 106% and a viability, T/C [19] of 132%. For the same compound, the viability, T/C [20] was 34.6%, the viability, T/C (second compound 0.0949 µM, first compound 3.16 µM) was 0.98% and the viability, T/C (second compound 0.0949 µM, first compound 10 µM) was 0.98%. It also gave a viability, T/C [21] of 93.5%, a viability, T/C [22] of 94.5% and a viability, T/C [23] of 98.5%. The viability, T/C [24] was 12.7%, the viability, T/C (second compound 0.3 µM, first compound 3.16 µM) was 1.23% and the viability, T/C (second compound 0.3 µM, first compound 10 µM) was 1.13%.
In the case of `O=C(c1ccc(F)c(F)c1Nc1ccc(I)cc1F)N1CC(O)([C@@H]2CCCCN2)C1` + CCn1c(-c2cccnc2C(C)OC)c2c3cc(ccc31)N1CCOC(CC(NC(=O)C(C(C)C)N(C)C(=O)C3(F)CCN(C(=O)C#CC(C)(C)N(C)C)CC3)C(=O)N3CCCC(N3)C(=O)OCC(C)(C)C2)C1, the IC50 (second compound 0.000949 µM) is reported as > 1000 nM, the IC50 (second compound 0.003 µM) is reported as > 1000 nM and the IC50 (second compound 0.00949 µM) is reported as 940 nM. The IC50 (second compound 0.03 µM) was 848 nM, the IC50 (second compound 0.0949 µM) was > 1000 nM and the IC50 (second compound 0.3 µM) was 661 nM. It also gave a viability, T/C (second compound 0.000949 µM, first compound 0.00316 µM) of 95.6%, a viability, T/C (second compound 0.000949 µM, first compound 0.01 µM) of 94.9% and a viability, T/C [1] of 102%. For the same compound, the viability, T/C [2] was 84.4%, the viability, T/C [3] was 78.9% and the viability, T/C [4] was 60.3%. The viability, T/C (second compound 0.003 µM, first compound 0.00316 µM) was 76.5%, the viability, T/C (second compound 0.003 µM, first compound 0.01 µM) was 82.9% and the viability, T/C [5] was 99.5%. The viability, T/C [6] was 79.5%, the viability, T/C [7] was 86.1% and the viability, T/C [8] was 59.4%. It also gave a viability, T/C (second compound 0.00949 µM, first compound 0.00316 µM) of 79.6%, a viability, T/C (second compound 0.00949 µM, first compound 0.01 µM) of 84.6% and a viability, T/C [9] of 85.2%. The viability, T/C [10] was 89%, the viability, T/C [11] was 83.9% and the viability, T/C [12] was 48.1%. It also gave a viability, T/C (second compound 0.03 µM, first compound 0.00316 µM) of 72.8%, a viability, T/C (second compound 0.03 µM, first compound 0.01 µM) of 86.5% and a viability, T/C [13] of 101%. The viability, T/C [14] was 74.1%, the viability, T/C [15] was 84.1% and the viability, T/C [16] was 44.3%. It also gave a viability, T/C (second compound 0.0949 µM, first compound 0.00316 µM) of 88%, a viability, T/C (second compound 0.0949 µM, first compound 0.01 µM) of 83.3% and a viability, T/C [17] of 99.1%. For the same compound, the viability, T/C [18] was 82.5%, the viability, T/C [19] was 72.6% and the viability, T/C [20] was 56%. It also gave a viability, T/C (second compound 0.3 µM, first compound 0.00316 µM) of 89.4%, a viability, T/C (second compound 0.3 µM, first compound 0.01 µM) of 78.5% and a viability, T/C [21] of 84.2%. For the same compound, the viability, T/C [22] was 82.9%, the viability, T/C [23] was 62.9% and the viability, T/C [24] was 42.8%.
